Data published in patent US4281009A, “Hydantoin derivatives” (Nippon Zoki Pharmaceutical Co., Ltd., priority 1978, dated 1981).

What was measured:
[1] = Acute toxicity test (LD50, Litchfield-Wilcoxon), rats; conditions: rat, in vivo, ip, intraperitoneal
Method: (§1) Toxicity tests were carried out by intraperitoneal administration of the compound of the present invention to groups each comprising 10 ICR-strain mice and SD-strain rats. LD50 was calculated by the Litchfield-Wilcoxon method based on the number of death 72 hours after the administration.

[2] = Acute toxicity test (LD50, Litchfield-Wilcoxon), mice; conditions: mouse, in vivo, ip, intraperitoneal
Method: as §1

[3] = tested on: normal mice and SART stress mice; assay: Analgesic effect, tail pressure method (Randall-Selitto's device); assay type: in vivo, mice (ddY-strain male); conditions: for change in vivo at 100 mg/kg / change in vivo at 200 mg/kg: Mus musculus; for Analgesic effect: intraperitoneal 50 mg/kg; for change in vivo at 200 mg/kg: intraperitoneal 200 mg/kg
Method: 5.1 Tail pressure method:
Randall-Selitto's device for determining analgesic effect by pressure stimulation was used. […]. The compounds of the present invention or other comparative drugs were given thereto and analgesic effect was determined. The effect was judged by measuring pressure applied 60 minutes after the intraperitoneal administration of the compounds of the present invention. The pressure thus measured was divided by a pressure before the administration. The value thus obtained was compared with that of a control group (to which 10 ml./Kg of 0.5% sodium salt of carboxymethylcellulose or 0.5% Tween 80 was given). When the compounds of the present invention were given perorally and other comparative drugs were given, an average of the pressure at 30, 60, 90 and 120 minutes after the administration was employed for evaluating the effect.

[4] = tested on: ddY-strain male mice; assay: Effect of prolongation of sleeping time (hexobarbital); assay type: in vivo; conditions: for change in vivo at 100 mg/kg / change in vivo at 300 mg/kg: Mus musculus, ip; for change in vivo at 100 mg/kg: 100 mg/kg intraperitoneal; for Effect of prolongation of sleeping time: 50 mg/kg intraperitoneal; for change in vivo at 300 mg/kg: 300 mg/kg intraperitoneal
Method: 7. Effect of prolongation of sleeping time:
Groups of mice each comprising 10 ddY-strain male mice were used. Sodium salt of hexobarbital was given intraperitoneally. Thereafter, the period of time in which righting reflex disappeared was measured. The effect was evaluated on the basis of prolongation of time of disappearance of righting reflex by the intraperitoneal administration of the compounds of the present invention as compared with control mice.

[5] = tested on: normal mice and SART stress mice; assay: Analgesic effect, D'Amour-Smith method; assay type: in vivo, mice (ddY-strain male); conditions: Mus musculus; for responders at 200 mg/kg: intraperitoneal 200 mg/kg
Method: 5.3. D'Amour-Smith method:
Groups each comprising 10 ddY-strain male normal mice and SART stress mice to which SART stress had been applied for 4 days were used. The root of the tail of the mouse to which black ink was applied was irradiated with infrared rays for up to 15 seconds. Time required till escape response was observed was measured. The effect was shown by the ratio of the mice in which an average value of the response time at 30, 60, 90 and 120 minutes after the administration of the compounds of the present invention or other comparative drugs was prolonged to at least 2 times as long as the time before the administration.

[6] = tested on: normal mice and SART stress mice; assay: Analgesic effect, acetic acid writhing method; assay type: in vivo; conditions: Mus musculus, sc, 100 mg/Kg subcutaneously
Method: 5.2. Acetic acid writhing method: 0.1 ml./10 g of isotonic sodium chloride solution containing 0.7% acetic acid was given intraperitoneally to groups of mice each comprising 5 normal mice and 5 SART stress mice to which SART stress had been applied for 8 days. Writhing syndromes number appeared for 15 minutes after the administration was measured. The effect was evaluated by giving 100 mg/Kg of the compounds of the present invention or DPH subcutaneously and comparing the writhing syndromes number of the mice with that of control mice.

[7] = ip, 1 h, SART stress mice, intraperitoneal 100 mg/kg, 60 minutes
[8] = ip, 1 h, normal mice, intraperitoneal 100 mg/kg, 60 minutes
[9] = ip, 1 h, SART stress mice, 60 minutes
[10] = ip, 1 h, normal mice, 60 minutes

Row | SMILES | LD50 at 72 h ([1]; female) | LD50 at 72 h ([1]; male) | LD50 at 72 h ([2]; female) | LD50 at 72 h ([2]; male) | change in vivo at 100 mg/kg [4] | change in vivo at 300 mg/kg [4] | other results
1 | O=C1NC(=O)C(c2ccc(O)cc2O)(c2ccc(O)cc2O)N1 [Compound 34, 5,5-Bis(2,4-dihydroxyphenyl)hydantoin] | 2000 to 3000 mg/kg | 2000 to 3000 mg/kg | 1200 mg/kg | > 1000 mg/kg | – | – | –
2 | O=C1NC(=O)C(c2ccc(O)c(O)c2)(c2ccc(O)c(O)c2)N1 [Compound 17, 5,5-Bis(3,4-dihydroxyphenyl)hydantoin] | 2220 mg/kg | 2400 mg/kg | 1800 mg/kg | 1500 to 2000 mg/kg | – | – | –
3 | O=C1NC(=O)C(c2cccc(O)c2)(c2cccc(O)c2)N1 [Compound 8, 5,5-Bis(3-hydroxyphenyl)hydantoin] | 1660 mg/kg | 1800 mg/kg | 1270 mg/kg | 1350 mg/kg | 16.9% | – | change in vivo at 100 mg/kg [3, 7]: 54.7%; change in vivo at 100 mg/kg [3, 8]: 22.9%
4 | O=C1NC(=O)C(c2ccc(O)cc2)(c2ccc(O)cc2O)N1 (centres unmarked) [Compound 31, 5-(2,4-Dihydroxyphenyl)-5-(4-hydroxyphenyl)hydantoin] | 1510 mg/kg | 1540 mg/kg | 1200 mg/kg | 1220 mg/kg | 19.1% | – | –
5 | COc1ccc(C2(c3ccc(OC)cc3OC)NC(=O)NC2=O)c(OC)c1 [Compound 18, 5,5-Bis(2,4-Dimethoxyphenyl)hydantoin] | > 5000 mg/kg | > 5000 mg/kg | > 5000 mg/kg | > 5000 mg/kg | – | – | –
6 | O=C1NC(=O)C(c2ccccc2OCc2ccccc2)(c2ccccc2OCc2ccccc2)N1 [Compound 12, 5,5-Bis(2-benzyloxyphenyl)hydantoin] | > 5000 mg/kg | > 5000 mg/kg | > 5000 mg/kg | > 5000 mg/kg | – | – | –
7 | CCCOc1ccc(C2(c3ccc(OCCC)cc3)NC(=O)NC2=O)cc1 [Compound 10, 5,5-Bis(4-propoxyphenyl)hydantoin] | 3800 to 4000 mg/kg | 4000 mg/kg | 3460 mg/kg | 3600 mg/kg | – | – | Effect of prolongation of sleeping time [4]: 17.0%
8 | O=C1NC(=O)C(c2ccc(O)cc2)(c2ccc(O)c(O)c2)N1 (centres unmarked) [Compound 14, 5-(3,4-Dihydroxyphenyl)-5-(4-hydroxyphenyl)hydantoin] | 1480 mg/kg | 1500 mg/kg | 1200 mg/kg | 1280 mg/kg | 20.2% | – | responders at 100 mg/kg ([5]; ip, SART stress mice, intraperitoneal 100 mg/kg): 60%; responders at 100 mg/kg ([5]; ip, normal mice, intraperitoneal 100 mg/kg): 30%; change in vivo at 100 mg/kg [3, 7]: 102%; change in vivo at 100 mg/kg [3, 8]: 42.6%; Analgesic effect ([3]; SART stress mice, 60 minutes): 78.3%; Analgesic effect ([3]; normal mice, 60 minutes): 35.2%; inhibition in vivo at 100 mg/kg ([6]; SART stress mice): 36.2%; inhibition in vivo at 100 mg/kg ([6]; normal mice): 5%
9 | COc1ccc(C2(c3ccc(OC)c(OC)c3)NC(=O)NC2=O)cc1 (centres unmarked) [Compound 16, 5-(3,4-Dimethoxyphenyl)-5-(4-methoxyphenyl)hydantoin] | > 5000 mg/kg | > 5000 mg/kg | > 5000 mg/kg | > 5000 mg/kg | – | 20.8% | –
10 | CCCOc1ccccc1C1(c2ccccc2OCCC)NC(=O)NC1=O [Compound 9, 5,5-Bis(2-propoxyphenyl)hydantoin] | > 5000 mg/kg | > 5000 mg/kg | > 5000 mg/kg | > 5000 mg/kg | – | 39% | change in vivo at 200 mg/kg [3, 9]: 74.4%; change in vivo at 200 mg/kg [3, 10]: 21.3%; Effect of prolongation of sleeping time [4]: 10.5%
11 | CCC1(c2ccccc2O)NC(=O)NC1=O (centres unmarked) [Compound 25, 5-Ethyl-5-(2-hydroxyphenyl)hydantoin] | 1480 mg/kg | 1600 mg/kg | 1040 mg/kg | 1230 mg/kg | – | 55.4% | change in vivo at 200 mg/kg [3, 9]: 49%; change in vivo at 200 mg/kg [3, 10]: 35.5%; inhibition in vivo at 100 mg/kg ([6]; SART stress mice): 19.8%; inhibition in vivo at 100 mg/kg ([6]; normal mice): 1.9%
12 | O=C1NC(=O)C(c2ccccc2)(c2ccccc2O)N1 (centres unmarked) [Compound 6, 5-(2-Hydroxyphenyl)-5-phenylhydantoin] | > 5000 mg/kg | > 5000 mg/kg | > 5000 mg/kg | > 5000 mg/kg | 30.6% | 33.7% | change in vivo at 100 mg/kg [3, 7]: 62.7%; change in vivo at 100 mg/kg [3, 8]: 38.1%
13 | Cc1ccc(C2(c3ccc(C)cc3)NC(=O)NC2=O)cc1 [Compound 13, 5,5-Bis(4-methylphenyl)hydantoin] | > 5000 mg/kg | > 5000 mg/kg | > 5000 mg/kg | > 5000 mg/kg | – | 14.1% | –
14 | COc1ccc(C2(c3ccc(O)cc3)NC(=O)NC2=O)cc1 (centres unmarked) [Compound 11, 5-(4-Hydroxyphenyl)-5-(4-methoxyphenyl)hydantoin] | > 5000 mg/kg | > 5000 mg/kg | 3000 mg/kg | > 3000 mg/kg | – | – | –
15 | COc1ccc(C2(c3ccc(OC)c(OC)c3)NC(=O)NC2=O)cc1OC [Compound 19, 5,5-Bis(3,4-dimethoxyphenyl)hydantoin] | > 5000 mg/kg | > 5000 mg/kg | > 5000 mg/kg | > 5000 mg/kg | 10% | – | –
16 | O=C1NC(=O)C(c2ccc(O)c(CO)c2)(c2ccc(O)c(CO)c2)N1 [Compound 20, 5,5-Bis(4-hydroxy-3-hydroxymethylphenyl)hydantoin] | 4090 mg/kg | 4310 mg/kg | 2980 mg/kg | > 3000 mg/kg | – | – | –
17 | Cc1c(N(C)C)c(=O)n(-c2ccccc2)n1C [Aminopyrine, reference compound] | – | – | – | – | – | – | responders at 100 mg/kg ([5]; po, SART stress mice, peroral 100 mg/kg): 50%; responders at 100 mg/kg ([5]; po, normal mice, peroral 100 mg/kg): 10%; change in vivo at 100 mg/kg ([3]; po, SART stress mice, peroral 100 mg/kg, average of 30, 60, 90 and 120 minutes): 58.9%; change in vivo at 100 mg/kg ([3]; po, normal mice, peroral 100 mg/kg, average of 30, 60, 90 and 120 minutes): 43.5%
18 | COc1cc(C2(c3ccc(OC)c(OC)c3OC)NC(=O)NC2=O)cc(OC)c1OC (centres unmarked) [Compound 22, 5-(2,3,4-Trimethoxyphenyl)-5-(3,4,5-trimethoxyphenyl)hydantoin] | > 5000 mg/kg | > 5000 mg/kg | > 5000 mg/kg | > 5000 mg/kg | 13.1% | – | –
19 | COc1ccc(C2(c3ccc(OC)c(CO)c3)NC(=O)NC2=O)cc1CO [Compound 21, 5,5-Bis(3-hydroxymethyl-4-methoxyphenyl)hydantoin] | > 5000 mg/kg | > 5000 mg/kg | > 5000 mg/kg | > 5000 mg/kg | 25.1% | – | –
20 | COc1ccc(C2(c3ccc(OC)cc3OC)NC(=O)NC2=O)cc1 (centres unmarked) [Compound 15, 5-(2,4-Dimethoxyphenyl)-5-(4-methoxyphenyl)hydantoin] | > 5000 mg/kg | > 5000 mg/kg | > 5000 mg/kg | > 5000 mg/kg | 15.4% | 23.9% | –
21 | COc1cc(C2(c3cc(OC)c(OC)c(OC)c3)NC(=O)NC2=O)cc(OC)c1OC [Compound 23, 5,5-Bis(3,4,5-trimethoxyphenyl)hydantoin] | > 5000 mg/kg | > 5000 mg/kg | > 5000 mg/kg | > 5000 mg/kg | 19.9% | 22.6% | responders at 200 mg/kg ([5]; ip, SART stress mice): 40%; responders at 200 mg/kg ([5]; ip, normal mice): 20%; change in vivo at 100 mg/kg [3, 7]: 66%; change in vivo at 100 mg/kg [3, 8]: 38.1%
22 | O=C1NC(=O)C(c2ccccc2O)(c2ccccc2O)N1 [Compound 29, 5,5-Bis(2-hydroxyphenyl)hydantoin] | 1900 mg/kg | 1980 mg/kg | 1600 mg/kg | 1600 to 1800 mg/kg | – | – | –
